Like-named read-outs stand apart in the source and are kept apart here.
Assays:
[1] = tested on: Histamine; test: Histamine-induced bronchospasm in guinea pigs; type: in vivo, guinea pig (male Hartley); settings: oral, histamine 10 ug/kg i.v.
Experimental: Male Hartley guinea pigs (450-550 g) were obtained from Charles River Breeding Laboratories. The animals were fasted overnight and the following day were anesthetized with 0.9 ml/kg i.p. of dialurethane (containing 0.1 g/ml diallylbarbituric acid, 0.4 g/ml ethylurea and 0.4 g/ml urethane). The left jugular vein was cannulated for the administration of compounds. The trachea was cannulated and the animals were ventilated by a rodent respirator at 55 strokes/min. with a stroke volume of 4 ml. A side arm to the tracheal cannula was connected to a pressure transducer to obtain a continuous measure of inflation pressure. Bronchoconstriction was measured as the percent increase in inflation pressure that peaked within 5 min. after challenge with spasmogen. […] Each animal was challenged with only a single spasmogen. The effect of a compound on the bronchospasm is expressed as a percent inhibition of the increase in inflation pressure compared to the increase in a control group.

[2] = tested on: PAF; test: PAF-induced bronchospasm in guinea pigs; design: species or system guinea pig (male Hartley); settings: Cavia porcellus, read-out: PAF Agonist Bronchospasm (in Vivo) % Inhibition
[3] = tested on: PAF-induced platelet aggregation (human platelet-rich plasma); test: PAF-induced platelet aggregation (in vitro); type: cell-based; settings: PAF 1-5×10^-8 M, read-out: PAF Antagonism (in vitro) IC50
Experimental: Platelet-activating factor (PAF) causes aggregation of platelets by a receptor-mediated mechanism. Therefore, PAF-induced platelet aggregation provides a simple and convenient assay to screen compounds for PAF antagonism.
Blood was centrifuged at 110× g for 15 min. and the supernatant platelet-rich plasma (PRP) carefully transferred into a polypropylene tube. Platelet-poor-plasma (PPP) was prepared by centrifuging PRP at 12,000× g for 2 min. (Beckman Microfuge B). PRP was used within 3 hr. of drawing the blood.
PAF was dissolved in chloroform:methanol (1:1, v/v) at a concentration of 2 mg/ml and stored at -70° C. An aliquot of this solution was transferred to a polypropylene tube and dried under a flow of nitrogen gas. […] This stock solution was further diluted to appropriate concentrations in Hepes-saline-BSA buffer. Collagen (Sigma) and adenosine diphosphate (ADP) (Sigma) were purchased as solutions. Test compounds were initially dissolved in dimethyl sulfoxide (DMSO) at a concentration of 50 mM and then further diluted in Hepes-saline-BSA buffer to achieve appropriate concentrations.
When an aggregating agent such as PAF is added to PRP, platelets aggregate. An aggregometer quantifies this aggregation by measuring and comparing light (infra-red) transmission through PPP and PRP. Aggregation assays were performed using a dual-channel aggregometer (Model 440, Chrono-Log Corp., Havertown, Pa.). PRP (0.45 ml) in aggregometer cuvettes was continually stirred (37° C.). […] Incubations were continued until the increase in light transmission reached a maximum (usually 2 min.). This increase in light transmission reflecting platlet aggregation is transmitted to a computer by the Chrono-Log model 810 AGGRO/LINK interface. The AGGRO/LINK calculates the slope of transmission change, thus providing the rate of aggregation. Values for inhibition were calculated by comparing rates of aggregation obtained in the absence and the presence of the compound. For each experiment, a standard PAF antagonist such as 8-chloro-6,11-dihydro-11-(1-acetyl-4-piperidylidene)-5H-benzo[5,6]cyclohepta[1,2-b]pyridine was used as a positive control.
Compounds that inhibit PAF-induced aggregation were tested against several other aggregating agents including collagen (0.2 mg/ml) and ADP (2 μM).

## CCOC(=O)N1CCC(=C2c3ccc(Cl)cc3CCc3cccnc32)CC1 [Compound 1, reference compound]
[1]; 1 mg/kg
  Histamine Agonist Bronchospasm (in Vivo) % Inhibition: > 50%
[2]; po
  inhibition in vivo at 10 mg/kg: < 50%

## [O-][n+]1ccc(CN2CCC(=C3c4ccccc4C=Cc4ccccc43)CC2)cc1 [Compound 5]
[3]
  IC50: 7.4 µM
[2]; oral, 10 mg/kg, PAF 0.4 μg/kg i.v.
  inhibition in vivo at 10 mg/kg: 15%

## [O-][n+]1ccc(CN2CCC(=C3c4ccc(Cl)cc4CCc4cccnc43)CC2)cc1 [Compound 4]
[1]; 1 mg/kg
  Histamine Agonist Bronchospasm (in Vivo) % Inhibition: 96%
[3]
  IC50: 4.1 µM
[2]; oral, PAF 0.4 μg/kg i.v.
  inhibition in vivo at 3 mg/kg: 35%

## Clc1ccc2c(c1)CCc1cccnc1C2=C1CCN(Cc2ccncc2)CC1 [Compound 3]
[3]
  IC50: 7.3 µM
[2]; oral, PAF 0.4 μg/kg i.v.
  inhibition in vivo at 3 mg/kg: 32%

## [O-][n+]1ccc(CN2CCC(=C3c4ccccc4CCc4ccccc43)CC2)cc1 [Compound 6]
[3]
  IC50: 3.4 µM
[2]; oral, PAF 0.4 μg/kg i.v.
  inhibition in vivo at 3 mg/kg: 0%

## [O-][n+]1ccc(CN2CCC(=C3c4ccccc4Oc4cccnc43)CC2)cc1 [Compound 10]
[3]
  IC50: 8.1 µM

## [O-][n+]1ccc(CN2CCC(=C3c4ccc(Cl)cc4SCc4cccnc43)CC2)cc1 [Compound 8]
[1]; 1 mg/kg
  Histamine Agonist Bronchospasm (in Vivo) % Inhibition: 83%
[3]
  IC50: 1 µM
[2]; oral, PAF 0.4 μg/kg i.v.
  inhibition in vivo at 5 mg/kg: 67%

## [O-][n+]1ccc(CN2CCN(C3c4ccc(Cl)cc4OCc4cccnc43)CC2)cc1 (racemic) [Compound 9]
[3]
  IC50: 1.7 µM
[2]; oral, PAF 0.4 μg/kg i.v.
  inhibition in vivo at 3 mg/kg: 22%

## [O-][n+]1ccc(CN2CCN(C3c4ccc(Cl)cc4CCc4cccnc43)CC2)cc1 (racemic) [Compound 7]
[1]; 3 mg/kg
  Histamine Agonist Bronchospasm (in Vivo) % Inhibition: 100%
[3]
  IC50: 0.71 µM
[2]; oral, PAF 0.4 μg/kg i.v.
  inhibition in vivo at 3 mg/kg: 81%

## CC(=O)N1CCC(=C2c3ccc(Cl)cc3CCc3cccnc32)CC1 [Compound 2, reference compound]
[1]; 3 mg/kg
  Histamine Agonist Bronchospasm (in Vivo) % Inhibition: 49%
[3]
  IC50: 0.61 µM
[2]; oral, PAF 0.4 μg/kg i.v.
  inhibition in vivo at 5 mg/kg: 59%
